The values below come from article PMC7822874, “Chemoprotective antimalarials identified through quantitative high-throughput screening of Plasmodium blood and liver stage parasites” (Scientific Reports, 2021).

Molecules are shown by their SMILES.

One may read the AC50 as the midpoint of the concentration-response curve, whichever way the signal moves.

This test concerns Plasmodium falciparum Dd2 asexual blood stage parasites. Kind of test: microbe, parasite or virus in culture. Further details: species or system Plasmodium falciparum Dd2 in human erythrocytes; single determination (one 11-point concentration-response curve). Conditions: Plasmodium falciparum, DD2, Erythrocyte, 72 h; read-out: AC50.
With `O=C(c1cc(C(=O)NCc2ccccc2)c(=O)n(Cc2ccccc2)c1)c1cc(Br)ccc1O` [MLS000402314-01], the AC50 was found to be 4.73 µM. Consider `COc1ccccc1C1CC(c2ccccc2)=NN1C(=O)c1ccccc1` (stereo not shown) [MLS001197331-01], for which the half-maximal activity concentration (AC50) was 2.37 µM. With `CCC1=C(C(=O)OC)C(c2ccccc2OC)N2C(CC(=O)NCC3CCCO3)=CSC2=N1` (stereo not shown) [NCGC00473341-01], the AC50 is 15 µM. In the case of `CC(Oc1ccc(F)cc1)C(=O)Nc1cc(Cl)ccc1-n1cncn1` (stereo not shown) [MLS001157608-01] it was 6.68 µM; in that of `COc1ccc(-c2cc(C(=O)Nc3cc(OC)cc(C(=O)Nc4cccc(C(F)(F)F)c4)c3)[nH]n2)cc1` [MLS003105955-01], 5.31 µM; in that of `CCOc1ccccc1NC(=O)C1CCN([S+](=O)([O-])c2c(C)noc2/C=C/c2ccco2)CC1` [NCGC00109315-01], 15 µM.

Turning to `COc1cc(CN2CC(=O)N(c3ccc(C)c(C)c3)C2=S)cc(OC)c1OC` [MLS000583901-01], the AC50 came to 15 µM.

As for `CCOC(=O)c1ccccc1NC(=O)c1cn(CC(C)C)c(=O)c2cc(OC)c(OC)cc12` [NCGC00104537-01], the AC50 is 8.41 µM. As for `COc1ccc(CCNC(=O)CCc2c(C)nc3c(c(C)nn3-c3ccc(C)c(C)c3)c2C)cc1OC` [NCGC00110173-01], the AC50 was determined as 0.668 µM. In the case of `Cc1ccc(CSC2=Nc3ccccc3C3=NC(CC(=O)NCc4ccco4)C(=O)N23)cc1` (stereo not shown) [MLS000094891-01] it was 6.68 µM; in that of `COc1cc2c(cc1OCc1ccccc1)NC(=O)C21CCN(c2ccccn2)CC1` [NCGC00416940-01], 15.3 µM. For `C[N+](C)(C)CCN(Cc1ccc(Cl)cc1)c1ccccn1` [MLS000556881-01], the AC50 is 9.44 µM. The value for `CC1CCN(Cc2c(O)ccc3c(=O)c(Oc4ccccc4Cl)c(C(F)(F)F)oc23)CC1` [NCGC00101482-01] was 1.33 µM; that for `COc1ccc(-c2cc(C[C@@H]3CC[C@H](O)[C@@H](CNCc4ccccc4OC)O3)no2)cc1` [NCGC00421057-01] was 3.44 µM.

For the molecule `COCCNc1cc(N2CCN(C3CCCCC3)CC2)c2noc3c2c1C(=O)c1ccccc1-3` [NCGC00111067-01], the AC50 amounted to 15 µM.

Regarding `Cc1ccccc1OCCSc1nc2ccc(NC(=O)c3ccccc3)cc2s1` [NCGC00118500-01], the AC50 amounted to 15 µM. The value for `COc1cc(-c2nc(-c3ccccc3)c(-c3ccc(Br)cc3)[nH]2)cc(OC)c1O` [NCGC00100017-01] was 2.11 µM. In the case of `CCOC(=O)c1sc(NC(=O)c2nc3ncccn3n2)c(C(=O)OC(C)C)c1C` [NCGC00141358-01] it was 2.66 µM; in that of `CCOC(=O)c1ccc2c(c1)N(CC(=O)N(C)c1ccccc1)C(=O)c1ccccc1S2` [NCGC00132027-01], 10.6 µM.

Regarding `CC1=C[C@@H](CN2CCOCC2)[C@H](C(C)C)C[C@H]1Cc1nnc(-c2ccc([N+](=O)[O-])cc2)o1` [NCGC00394583-01], the half-maximal activity concentration (AC50) was determined as 9.44 µM. Turning to `O=C(c1ccc(OC2CCN(Cc3c[nH]c4ccccc34)CC2)cc1)N1CCCCC1` [NCGC00429064-01], the concentration at half-maximal activity (AC50) turned out to be 15 µM.

In the case of `Cc1cc(C)c(/C=C/c2onc(C)c2[S+](=O)([O-])N2CCC(C(=O)Nc3ccc(Cl)c(C(F)(F)F)c3)CC2)c(C)c1` [NCGC00132732-01], the AC50 came out at 10.6 µM.

As for `COc1ccc(CNCc2ccc(C)s2)cc1OCC(O)CN1CCCCC1` (stereo not shown) [NCGC00428936-01], the concentration at half-maximal activity (AC50) is 9.44 µM.

With `CC1C(=O)C(C)C(c2cc(Cl)ccc2O)NC1c1cc(Cl)ccc1O` (stereo not shown) [MLS001197743-01], the AC50 was determined as 6.68 µM. With `CCN(CCCNC(=O)c1nn(-c2ccc(OC)c(Cl)c2)c(=O)c2c1c1ccccc1n2C)c1cccc(C)c1` [NCGC00108898-01], the AC50 was 15 µM. The value for `c1ccc(Nc2cc3c(cn2)CN(Cc2ccsc2)CCN3)cc1` [NCGC00411091-01] was 13.7 µM. In the case of `CCN(CC)C(=O)c1ccc(-c2nnc3ccc(NC(=O)C4CC4)cn23)cc1` [NCGC00429860-01] it was 2.99 µM; in that of `COC(=O)c1cc(C(=O)c2ccc(Cl)cc2Cl)cn1C` [MLS000546235-01], 13.3 µM.

Consider `COc1ccc(N2CCN(Cc3cc4c(cc3O)CCC4)CC2)cc1` [MLS000572034-01], for which the concentration at half-maximal activity (AC50) came out at 16.8 µM. On to `CC1(c2ccccc2)CC(c2ccccc2)=Nc2nonc2N1` (stereo not shown) [MLS000079110-01], for which the AC50 worked out at 5.31 µM. The value for `O=c1nc(C2CCCN(Cc3ccccn3)C2)[nH]n1-c1ccc(Cl)cc1` (stereo not shown) [NCGC00477746-01] was 2.37 µM; that for `O=C(Cc1ccc(Cl)cc1)NCc1nnc2cc(-c3nc(C4CC4)no3)ccn12` [NCGC00457746-01] was 7.5 µM. For the molecule `CCOc1ccc(NC(=O)c2cnn3c2NC(c2cccc(OC)c2)=CC3c2ccccc2)cc1` (stereo not shown) [NCGC00121753-01], the AC50 is 4.73 µM. As for `Cc1nc2c(c(-c3ccc(O)cc3)n1)CN(Cc1ccc(C(F)(F)F)cc1)CCC2` [NCGC00480263-01], the AC50 stood at 4.22 µM. For the molecule `CCCCN(CCCC)CC(O)Cn1cc(/C=C/C(=O)c2ccccc2)c2ccccc21` (stereo not shown) [NCGC00114887-01], the AC50 stood at 1.68 µM. The value for `CCOC(=O)c1ccccc1NC1c2ccccc2C(=O)N1C1CCN(C(=O)OCC)CC1` (stereo not shown) [MLS000878310-01] was 13.3 µM.

Turning to `COc1ccc(C2Nc3ccccc3C(=O)N2Cc2ccccc2)cc1COc1ccc(Cl)cc1Cl` (stereo not shown) [NCGC00165212-01], the AC50 amounted to 8.41 µM. Take `CC1(c2ccccn2)Nc2ccccc2-c2nc3ccccc3n21` (stereo not shown) [MLS000039430-01]: the concentration at half-maximal activity (AC50) is 5.31 µM. In the case of `Cc1ccccc1NC(=O)Nc1ccc2nc(N3CCN(C)CC3)cc(C)c2c1` [NCGC00126513-01] it was 1.5 µM.

With `CC(C)C(=O)NCC1CN(Cc2ccccc2)C(=O)c2c(ccnc2-c2ccc(OCC(=O)O)cc2)O1` (stereo not shown) [NCGC00420601-01], the concentration at half-maximal activity (AC50) was determined as 2.11 µM.

With `CC(=O)Nc1cccc(C(=O)N2CCC3(CC2)NC(c2ccc(C)cc2)=NO3)c1` [NCGC00446797-01], the AC50 was 0.841 µM. The value for `COc1cccc(/C(C#N)=C/c2c(-c3ccc(Cl)cc3)nc3c(C)cccn23)c1` [MLS000326878-01] was 5.96 µM; that for `c1ccc(Cn2c(Sc3nnnn3-c3ccccc3)nnc2-c2ccccc2)cc1` [MLS000052243-01] was 7.5 µM; that for `CN(C)CCNCc1ccc(-c2ccccc2)o1` [NCGC00326685-02] was 10.6 µM. Consider `CC(C)c1ccccc1OCC(O)CN(CC(O)COc1cccc2ccccc12)C(C)C` (stereo not shown) [MLS001179995-01], for which the concentration at half-maximal activity (AC50) was found to be 2.37 µM. In the case of `Cc1c(CN2CCN(CC(C)(C)C)C(CCO)C2)[nH]c2ccccc12` (stereo not shown) [MLS001000590-01] it was 9.44 µM; in that of `CCNc1nc(NCc2ccccc2)nc(Oc2ccc(=O)[nH]n2)n1` [MLS000097254-01], 2.11 µM. In the case of `CCCC1=[N+](CC(=O)c2ccccc2)CCn2c(C)ccc21` [MLS000551171-01] it was 15 µM; in that of `CCN1CCN(C(=O)c2ccc3c(c2)N(Cc2c(F)cccc2Cl)C(=O)c2ccccc2S3)CC1` [NCGC00108184-01], 0.00842 µM; in that of `Cc1ccc2oc(=O)n(CCOc3ccccc3C)c2c1` [MLS000708194-01], 4.73 µM.

Take `O=C1N=C(NC2CCCC2)C2(CCN(CC3CC3)C2)N1c1cc(F)cc(F)c1` (stereo not shown) [NCGC00374289-01]: the AC50 stood at 1.5 µM. For the molecule `CC(C)(C)c1ccc(-c2noc(-c3ncn4c3COC(c3ccc(F)cc3)C4)n2)cc1` (stereo not shown) [NCGC00449976-01], the AC50 came to 15 µM. Turning to `COc1ccc(CN2C[C@H]3CN(Cc4c[nH]c5ccccc45)CCN3C2=O)cc1` [NCGC00392270-01], the AC50 is 3.85 µM.

As for `CCOC(=O)c1c(C)oc2nc(C)nc(Nc3ccc(CC)cc3)c12` [NCGC00126813-01], the half-maximal activity concentration (AC50) stood at 7.5 µM.

For `CC[C@H]1C[N@@]2CC[C@H]1C[C@@H]2CNCc1ccc(SC)cc1` [NCGC00392466-01], the AC50 is 4.33 µM. The value for `Fc1cccc(CC2CCOC3(CCNCC3)C2)c1` (stereo not shown) [NCGC00470522-01] was 13.3 µM; that for `COc1ccc(-c2nn(-c3ccc(F)cc3)c(OC(C)=O)c2-c2ccc(NC(C)=O)cc2)cc1OC` [NCGC00473193-01] was 15 µM. In the case of `COc1ccc(-c2nc3c(c(SCc4ccc(Br)cc4)n2)Cc2c(CO)cnc(C)c2O3)cc1` [NCGC00122580-01], the AC50 worked out at 0.0668 µM. In the case of `CCOc1ccc(-c2nonc2NC(=O)c2ccc(C)cc2)cc1OCC` [NCGC00116031-01] it was 1.68 µM. On to `C#C[C@H]1C[N@@]2CC[C@H]1C[C@@H]2CNCc1cccc(Cl)c1` [NCGC00395254-01], for which the concentration at half-maximal activity (AC50) was 4.85 µM. In the case of `Fc1ccc(Oc2nc(-c3ccccn3)nc3ccccc23)cc1` [MLS000769507-01] it was 13.3 µM; in that of `COc1ccc(-c2nc(Cn3c(SCc4ccccc4F)nc4ccncc43)c(C)o2)cc1OC` [NCGC00113862-01], 8.41 µM.

As for `CCOCCCNc1nc2cc(OC)c(OC)cc2c2nc(-c3ccccc3)nn12` [NCGC00112857-01], the concentration at half-maximal activity (AC50) worked out at 0.211 µM. In the case of `COc1cccc(NC(=O)c2sc3nc(C)c(C(=O)Nc4ccc(C)cc4C)c(-c4cccs4)c3c2N)c1` [NCGC00107008-01] it was 5.96 µM; in that of `CCCCCNc1nc2c(-c3ccccc3)nnn2c2ccccc12` [NCGC00111529-01], 11.9 µM; in that of `Cc1ccccc1OCCn1cc(C(=O)c2ccco2)c2ccccc21` [NCGC00101854-01], 5.31 µM. In the case of `CSc1nnc(-c2cc3ccccc3cc2O)n1C` [MLS000035069-01], the concentration at half-maximal activity (AC50) is 7.5 µM.

Take `CCCCNC(=O)c1onc(CSc2nc3ccccc3[nH]2)c1C(=O)NCCCC` [MLS000561096-01]: the concentration at half-maximal activity (AC50) amounted to 5.31 µM. In the case of `COc1ccccc1CN1CCOCC2(C1)CN([S+](=O)([O-])c1ccccc1)C2` [NCGC00419002-01] it was 12.2 µM.

As to `COC(=O)CC1Oc2ccc(Cl)cc2-n2cc(-c3ccc(F)cc3)nc21` (stereo not shown) [NCGC00164810-01], the AC50 is 4.22 µM.

Take `Cc1oc2ccc(O)c(CN(C)Cc3ccccc3)c2c1C(=O)Nc1cccc(C(F)(F)F)c1` [NCGC00115691-01]: the concentration at half-maximal activity (AC50) is 2.11 µM. In the case of `COc1cccc(Nc2ccc3c(n2)C(C)(C(=O)NCC2CC2)CN(C)C3)c1` (stereo not shown) [NCGC00414531-01], the AC50 was 12.2 µM.

On to `CN(C)c1ccc(CN2CCC3(CC2)COc2ccccc2C(=O)N3)cc1` [NCGC00477464-01], for which the AC50 worked out at 2.66 µM.
